Reference: patent US20210087279A1, “REGULATABLE CHIMERIC ANTIGEN RECEPTOR” (Novartis AG, priority 2014, published 2021)

Tests used:
Format in all cases: cell-based
[1] = system: NFAT activation in Jurkat cells with NFAT-LUC reporter (JNL); assay: Jurkat NFAT-LUC reporter assay, EGFRvIII RCAR with intracellular FKBP/FRB switch
Description: Jurkat cells with NFAT-LUC reporter (JNL) were grown to the density of 0.5×10^6/ml in Jurkat cell growth media with puromycin at 0.5 μg/ml. For each transfection 2.5×10^6 cells were spin down at 100 g for 10 minutes. Two μg of DNA per construct were used per transfection. Amaxa Nucleofector solution V and supplement I was mixed and 100 μl was added into the tube with DNA construct. The mixture was then added to the cells and transferred to the electroporation cuvette. Electroporation was done under setting X-001 using Amaxa Nucleofector II Device. 0.5 ml of growth media was added immediately after eletroporation and the mixture were transferred into 2 ml growth media in one well of the 6-well plate. After one hour, A/Z compound was applied at the final concentration of 500 nM. The cells were incubated in the 37° C. incubator with 5% CO2 overnight for 18 hrs. Tissue culture plate was coated with 5 μg/ml of EGFRvIII-Fc or IgG1-Fc for 2 hrs, blocked with the blocking buffer (DPBS with 5% serum) for 1 hour. The transfected cells with or without A/Z compound were resuspended and added to the target plate with 100 μl per well and incubated for 18 hrs. Luciferase One Glo reagent 100 μl was added per well. The samples were incubated for 5 min at 37° C. and then luminescence is measured using a luminometer.
Specifically, JNL were grown to the density of 0.5×10^6/ml in Jurkat cell growth media with puromycin at 0.5 μg/ml. For each transfection 2.5×10^6 cells were spin down at 100 g for 10 minutes. Two μg of DNA per construct were used per transfection. Amaxa Nucleofector solution V and supplement I was mixed and 100 μl was added into the tube with DNA construct. […] The samples were incubated for 5 min at 37° C. and then luminescence is measured using a luminometer.
To determine the dose response, rapaloque (“A/C heterodimerizer” AP21967), at various concentrations, was applied to the transfected cells that were cotransfected with EGFRvIII clone 139-CD8alphaTM-FKBP (SEQ ID NO: 5, construct 66) and FRB-4-1BB-CD3zeta (SEQ ID NO: 6, construct 67) and NFAT activation was measured. […]

[2] = system: NFAT activation in Jurkat cells with NFAT-LUC reporter (JNL), PDL1-Fc target; assay: Activation assay of redirected inhibitory PD1 CAR / PD1 RCAR
Description: Jurkat cells with NFAT-LUC reporter (JNL) were grown to the density of 0.5×10^6/ml in Jurkat cell growth media with puromycin at 0.5 μg/ml. For each transfection 3×10^6 cells were spin down at 100 g for 10 minutes. Four μg DNA per construct were used per transfection. Amaxa Nucleofector solution V and supplement I was mixed and 100 μl was added into the tube with DNA construct. The mixture was then added to the cells and transferred to the electroporation cuvette. Electroporation was done under setting X-001 using Amaxa Nucleofector II Device. 0.5 ml of growth media was added immediately after eletroporation and the mixture were transferred into 2 ml growth media in one well of the 6-well plate. After two hours, the rapalogue compound at various concentrations was added to cells. The cells were applied to tissue culture plate wells that were coated by the target. Tissue culture plate was coated with 5 μg/ml of PDL1-Fc or IgG1-Fc or any target for 2 hrs at 37° C., then blocked with the blocking buffer (DPBS with 5% serum) for 30 minutes. The transfected cells were added to the target plate with 100 μl per well and incubated further for 16 hrs. Luciferase One Glo reagent 100 μl was added per well. The samples were incubated for 5 min at 37° C. and then luminescence is measured using Envision plate reader. […]

[3] = system: NFAT activation in Jurkat cells with NFAT-LUC reporter (JNL); assay: Jurkat NFAT-LUC assay, EGFRvIII RCAR with extracellular FKBP/FRB switch; settings: 250 nM, external switch
Description: In this example, the switch is designed by fusing a leader sequence to the 139 scFv followed by linker and the first switch domain—FKBP, a hinge region and a transmembrane region (SEQ ID NO: 31). The second construct is designed by fusing a leader sequence to the FRB switch domain, a transmembrane region and the intracellular signaling domains 4-1BB followed by CD3zeta (SEQ ID NO: 32). The extracellular switch transfections and activations were carried out essentially as described for the intacellular switches in Example 1.

[4] = system: reporter under NFAT control in JNL cells; assay: Dimerization molecule dose response, single vector construct 143775 in JNL cells, CD19 target; settings: nM to sub-nM doses
Text: The constructs and viral particles were made and tested essentially as described in Example 11. Viral particles were introduced into JNL cells and evaluated for activity essentially as described in Example 1 except that the target was CD19 (as opposed to EGFRviii).
Construct 143775 was introduced into cells and the affect of dimerization molecule concentration on activation evaluated essentially as described in Example 14.

[5] = system: NFAT activity in Jurkat cells with NFAT-LUC reporter (JNL); assay: Activation of RCAR with extracellular FKBP/FRB switch by RAD001; settings: for RAD001 dose at which NFAT activity peaked: 0-50 nM tested
Description: In this example, the activation of RCAR with an extracellular switch was evaluated in the presence of the dimerization molecule RAD001. Four RCARs were tested: two half switch constructs, e.g., with the dimerization switch in both orientations (FIG. 34A), and two full switch constructs, e.g., with the dimerization switch in both orientations (FIG. 34B), where the dimerization switch is an extracellular FKBP/FRB dimerization, as depicted in FIGS. 34A and 34B. In the half-switch constructs, the antigen binding member comprises a scFV domain, an extracellular switch domain, a transmembrane domain, an intracellular costimulatory signaling domain 4-1BB, and the intracellular signaling member comprises an extracellular switch domain, a transmembrane domain, and an intracellular primary signaling domain, CD3zeta (FIG. 34A). In the full-switch constructs, the antigen binding member comprises a scFv domain, an extracellular switch domain, and a transmembrane domain, and the intracellular signaling member comprises an extracellular switch domain, a transmembrane domain, an intracellular costimulatory signaling domain, 4-1BB, and an intracellular primary signaling domain, CD3zeta (FIG. 34B).
The RCAR constructs were expressed in a Jurkat reporter cell line. Jurkat cells with NFAT-LUC reporter (JNL) were grown to the density of 0.5×10^6/ml in Jurkat cell growth media with puromycin at 0.5 μg/ml. For each transfection 2.5×10^6 cells were spin down at 100 g for 10 minutes. Two μg of DNA per RCAR construct were used per transfection. Amaxa Nucleofector solution V and supplement I was mixed and 100 μl was added into the tube with DNA construct. The mixture was then added to the cells and transferred to the electroporation cuvette. Electroporation was done under setting X-001 using Amaxa Nucleofector II Device. […]
After one hour, RAD001 compound was applied at various concentrations: 0 nM, 0.01 nM, 0.03 nM, 0.1 nM, 0.3 nM, 1 nM, 5 nM, and 50 nM. […] The samples were incubated for 5 min at 37° C. and then luminescence was measured using Envision plate reader.

[6] = system: NFAT activity in Jurkat cells with NFAT-LUC reporter (JNL); assay: Activation of RCAR half switches (intracellular FKBP/FRB) by RAD001; settings: both half switches (CD28 or 4-1BB); 0-10 nM tested
Description: In this example, the activation of a RCAR half switch was evaluated in the presence of the dimerization molecule RAD001. Two RCAR constructs were tested where the dimerization switch is an intracellular FKBP/FRB dimerization switch, and the switch domains are located in both orientations with respect to the antigen binding member and the intracellular member. For example, the antigen binding member comprises a scFV domain, a transmembrane domain, an intracellular switch domain, and an intracellular costimulatory signaling domain; and the intracellular signaling member comprises an […] switch domain, a transmembrane domain, and an intracellular primary signaling domain, e.g., CD3zeta (FIG. 36A).
Jurkat cells with NFAT-LUC reporter (JNL) were grown to the density of 0.5×10^6/ml in Jurkat cell growth media with puromycin at 0.5 μg/ml. For each transfection 2.5×10^6 cells were spin down at 100 g for 10 minutes. Two μg of DNA per construct were used per transfection. […]
After one hour, RAD001 compound was delivered at 50 nM when testing RCARs with different costimulatory signaling domains (FIGS. 36A-B), or various concentrations: 0 nM, 0.01 nM, 0.03 nM, 0.1 nM, 0.3 nM, 1 nM, 3 nM, and 10 nM (FIGS. 37A-B). […] The samples were incubated for 5 min at 37° C. and then luminescence is measured using Envision plate reader.

[7] = system: luciferase-expressing Nalm6 (human pre-B ALL) cell line; assay: Killing assay with RCAR-expressing primary T cells; settings: effector:target 1:1; 20 hours
Description: The ability for RCAR T cells (RCAR T cell generation described above) to target and kill tumor cells was assessed in vitro. A luciferase-based assay was used, with tumor cell lines expressing luciferase reporters. Target cells (tumor cells) were plated at 25,000 cells/well. RCAR T cells, as well as standard CAR-expressing T cells and T cells expressing no CARs were added at the effector:target ratio 1:1 in duplicates. Additionally, RAD001 was added in seven 5-fold dilution steps, starting at 50 nM. One duplicate received pure medium, no RAD001. The cells were cultured for 20 hours, after which the luminescence of each well was detected to determine the percentage of target cells killed (BrightGlo, Promega protocol). Specific killing (%)=[…]. The luciferase-expressing Nalm6 (human pre-B ALL) cell line was used as the target cell.

Row | Compound | fold of induction of NFAT mediated by the target ([1]; 0.8 nM rapalogue, constructs 66 and 67) | fold activation of NFAT ([1]; 500 nM to as low as 20 nM, constructs 66 and 67, FIG. 12B) | target regulated activation ([1]; 500 nM, EGFRvIII-Fc target, FIG. 12A) | induction of signaling by PDL-1 target ([2]; 500 nM AP21967, PD1 RCAR (PD1-ECD-TM-FRB and FKBP-41BB-CD3 zeta)) | dose response, activation of NFAT signaling ([2]; varying concentrations, PD1 RCAR, FIG. 18) | target regulated activation [3] | activation [4] | RAD001 dose at which NFAT activity peaked ([5]; extracellular RCAR full switches) [nM] | inhibition of NFAT activity at higher dosages ([5]; extracellular half switch 1, 5 nM and 50 nM) | RAD001 dose at which NFAT activity peaked ([5]; extracellular half switch 2) [nM] | RAD001 concentration at which NFAT activity peaked [6] [nM] | RAD001 concentration at maximal killing by RCAR-expressing T cells [7]
1 | CO[C@H]1[C@@H](O)[C@H](C)C[C@H](C)/C=C/C=C/C=C(\C)[C@@H](c2c[nH]c3c(C)cccc23)C[C@@H]2CC[C@@H](C)[C@@](O)(O2)C(=O)C(=O)N2CCCC[C@H]2C(=O)O[C@H]([C@H](C)CC2CC[C@@H](O)[C@H](OC)C2)C[C@H](O)[C@H](C)/C=C(\C)[C@H]1O (stereo partly drawn) [AP21967] | 2-3 fold | remained relatively constant | significant target regulated activation | significant induction of signaling | potent even at sub nM concentration | significant target regulated activation |  |  |  |  |  | 
2 | CO[C@H]1C[C@@H]2CC[C@@H](C)[C@@](O)(O2)C(=O)C(=O)N2CCCC[C@H]2C(=O)O[C@H]([C@H](C)C[C@@H]2CC[C@@H](OCCO)[C@H](OC)C2)CC(=O)[C@H](C)/C=C(\C)[C@@H](O)[C@@H](OC)C(=O)[C@H](C)C[C@H](C)/C=C/C=C/C=C/1C [RAD001, (1R,9S,12S,15R,16E,18R,19R,21R,23S,24E,26E,28E,30S,32S,35R)-1,18-dihydroxy-12-{(1R)-2-[(1S,3R,4R)-4-(2-hydroxyethoxy)-3-methoxycyclohexyl]-1-methylethyl}-19,30-dimethoxy-15,17,21,23,29,35-hexamethyl-11,36-dioxa-4-aza-tricyclo[30.3.1.04,9]hexatriaconta-16,24,26,28-tetraene-2,3,10,14,20-pentaone] |  |  |  |  |  |  | effective at a broad range of concentrations | 1 | no inhibition of activity | 1 | 1 | around 1 nM
